Reference: article PMC8347307, “Preclinical Bioavailability, Tissue Distribution, and Protein Binding Studies of Erinacine A, a Bioactive Compound from Hericium erinaceus Mycelia Using Validated LC-MS/MS Method” (Molecules, 2021)
Values joined by “and” are separate entries in the source; they are usually repeats but may differ in a detail not shown here. Equal entries are not always repeated. Where two headings read alike, the source gives them in different places.

Legend:
[1] = Pharmacokinetic study, erinacine A in rat plasma after oral and intravenous administration; assay type: in vivo, Sprague-Dawley rats
Procedure: Analysis of erinacine A concentration in samples was conducted by Agilent 1100 series HPLC system (Agilent, Waldbronn, Germany) equipped with a G1376A capillary pump and a G1313A autosampler. Chromatographic separation was carried out in an Agilent Eclipse XDB-C18 column (3.5 µm, 4.6 × 100 mm) at 25 °C. The mobile phase consists of water (A) and acetonitrile (B) with gradient elution program as follows: 0 min, 70% B; 0–5 min, 70–100% B; 5–8 min, 100% B; 8–8.1 min, 100–70% B; 8.1–11 min, 70% B. The flow rate was 0.35 mL/min and injection volume was 10 μL. Mass spectrometric detection was conducted on an API 3000 triple quadrupole instrument (Applied Biosystems, Vaughan, ON, Canada) in multiple reaction monitoring (MRM) mode with parameters as follows: nebulizer gas, 10 psi; collision gas, 2 psi; curtain gas, 7 psi; source voltage, 4.5 kV; source temperature, 275 °C. A turbo ionspray electrospray ionization (ESI) interface in positive ionization mode was used (Applied Biosystem, Foster City, CA, USA). The specific precursor to product ion transitions is [M+H] 433 → 301 for erinacine A and 197 → 169 for 2,4,5-TMBA (internal standard). Data analysis was performed with Analyst 1.4.2 software (Applied Biosystems, Concord, ON, Canada).
Before intravenous administration, animals were anesthetized with Avertin (2,2,2-Tribromoethanol, 0.071 M). Blood was collected into heparinized microtubes at scheduled time points and centrifuged at 2404× g for 10 min. The plasma (100 μL) was then mixed with equal volume of internal standard 2,4,5-TMBA (final concentration 25 ng/mL) and 300 μL of ethyl acetate. The mixture was vortexed and centrifuged at 13,845× g for 3 min. The supernatant was removed and the residue was reconstituted with isovolumetric acetonitrile for LC-MS/MS analysis. All animal procedures were approved by the Animal Care and Use Committee of Shih Chien University (IACUC#10405).
All experimental data were presented as mean ± standard deviation (mean ± SD). Maximal plasma concentration (Cmax), and time taken to achieve maximal plasma concentration (Tmax), half-life (T1/2), and area under the plasma concentration − time curve (AUC) were assessed on each animal using the software of WinNonlin (Pharsight Corp., Mountain View, CA, USA) by the non-compartmental model. Applying the pharmacokinetic data of oral administration (po) and intravenous administration (iv), the absolute bioavailability of erinacine A was calculated as [(AUCpo × Doseiv)/(AUCiv × Dosepo)] × 100%.

[2] = Tissue distribution study after single oral administration; assay type: in vivo, Sprague-Dawley rats; conditions: for Tmax / concentration at 4 h: Sprague-Dawley, rat
Procedure: The homogenates (100 μL) were then mixed with equal volume of internal standard 2,4,5-TMBA (final concentration 25 ng/mL) and 300 μL of ethyl acetate. The mixture was vortexed and centrifuged at 13,845× g for 3 min. The supernatant was removed and the residue was reconstituted with isovolumetric acetonitrile for LC-MS/MS analysis.

[3] = Excretion study, feces and urine, after single oral administration; assay type: in vivo, Sprague-Dawley rats
Procedure: […] Feces were freeze-dried and grinded before mixing with equal volume of internal standard 2,4,5-TMBA (final concentration 25 ng/mL) and 300 μL of ethyl acetate. Urines were mixed with equal volume of internal standard 2,4,5-TMBA (final concentration 25 ng/mL) and 300 μL of ethyl acetate. The mixture was vortexed and centrifuged at 13,845× g for 3 min. The supernatant was removed and the residue was reconstituted with isovolumetric acetonitrile for LC-MS/MS analysis.

rat plasma = assay: Protein binding in plasma by rapid equilibrium dialysis; assay type: in vitro ADME, Sprague-Dawley rats
Procedure: (§1) Then, the protein binding of erinacine A in the plasma and diluted (4×) tissue homogenates (brain, heart, lung, liver, kidney, stomach, large intestine, and small intestine) was determined by rapid equilibrium dialysis devices with 8000 Da molecular weight cut-off (#89809, Thermo Fisher Scientific, Waltham, MA, USA) according to manufacturer’s guidelines. In brief, the stock solution of erinacine A prepared in methanol was spiked into blank plasma and tissues to yield a final concentration of 200 ng/mL. Two hundred microliter aliquot of spiked samples were then dialysed against 350 µL aliquot of isotonic phosphate buffered saline at 37 °C on an orbital shaker at 250 rpm for 4 h. The resulting sample and buffer dialysates were removed from the chambers, matched with an equal volume of opposite blank matrix, and analyzed by LC-MS/MS. The protein binding of erinacine A is determined by the following Equations (1) and (2):% Free = (concentration at buffer chamber/concentration at sample chamber) × 100%(1) % Bound = 100% − % Free(2)

[4] = Protein binding in diluted (4×) tissue homogenates by rapid equilibrium dialysis; assay type: in vitro ADME, Sprague-Dawley rats; conditions: Sprague-Dawley, rat, 200 ng/mL, 37 °C, 4 h
Procedure: as §1

[5] = system: diluted (4×) tissue homogenates; assay: as above; assay type: in vitro ADME, Sprague-Dawley rats; conditions: calculated from protein binding assay with equation of ref 36
Procedure: as §1

[6] = Stability in plasma and tissues at 37 °C for 4 h; assay type: in vitro ADME, Sprague-Dawley rats; conditions: data not shown
[7] = rat, in vivo, iv, 5 mg/kg
[8] = system: nerve growth factor (NGF); set-up: method as in doi:10.1016/S0040-4039(00)76760-8; conditions: in vitro; cited from earlier work
[9] = system: nerve growth factor (NGF); set-up: method as in doi:10.1016/j.nutres.2005.06.001; conditions: rats, 8 mg/kg BW for 5 weeks from birth; cited from earlier work
[10] = system: transient focal cerebral ischemia; set-up: method as in PMID 25167134; conditions: rat, intraperitoneal 1 mg/kg during the 5 days before onset of ischemia; cited from earlier work
[11] = system: DLD-1 colorectal adenocarcinoma cells; set-up: method as in doi:10.1016/j.jff.2015.12.031, PMID 31680958; conditions: in vitro; cited from earlier work
DLD-1 xenografts = system: DLD-1 xenografts; set-up: method as in doi:10.1016/j.jff.2015.12.031, PMID 31680958; conditions: nude mice; cited from earlier work
[12] = system: insoluble β amyloid and C-terminal fragment of amyloid precursor protein; set-up: method as in PMID 29463001; conditions: cited from earlier work
[13] = set-up: method as in PMID 31022946; conditions: rats, cited from earlier work
[14] = male, Sprague-Dawley, iv, rat plasma, I.V. erinacine A 5 mg/kg
[15] = male, Sprague-Dawley, po, rat plasma, P.O. mycelia extract 2.381 g/kg BW (equivalent to 50 mg/kg erinacine A)
[16] = 0–4 h after oral mycelia extract 2.381 g/kg BW
[17] = collected for 24 h, comparison with ref 22
[18] = unchanged erinacine A, cumulative
[19] = oral mycelia powder equivalent to 50 mg/kg BW erinacine S

Compound: CC(C)C1=C2C3=CC=C(C=O)C[C@H](O[C@@H]4OC[C@@H](O)[C@H](O)[C@H]4O)[C@]3(C)CC[C@@]2(C)CC1 [erinacine A]
- AUC [1, 14]: 3120 ng·h/mL
- Cmax [1, 14]: 4530 ± 3420 ng/mL
- half-life [1, 14]: 0.0728 ± 0.0758 h
- Tmax ([1]; male, Sprague-Dawley, po, rat plasma, P.O. H. erinaceus mycelia extract 2.381 g/kg BW (equivalent to 50 mg/kg BW erinacine A), n = 6): 6 h
- AUC [1, 15]: 7620 ng·h/mL
- Cmax [1, 15]: 1400 ± 1140 ng/mL
- half-life [1, 15]: 8.19 ± 1.86 h
- concentration at 90 min ([1]; male, Sprague-Dawley, rat, plasma, 2.381 g/kg, oral, at 90 min, read-out: Plasma concentration, first peak): 640 ng/mL
- concentration at 150 min ([1]; male, Sprague-Dawley, rat, plasma, 2.381 g/kg, oral, at 150 min, read-out: Plasma concentration, second peak): 735 ng/mL
- concentration at 360 min ([1]; male, Sprague-Dawley, rat, plasma, 2.381 g/kg, oral, at 360 min, read-out: Plasma concentration, third peak): 1250 ng/mL
- bioavailability ([1]; male, Sprague-Dawley, rat, plasma, rats, [(AUCpo × Doseiv)/(AUCiv × Dosepo)] × 100%, po 50 mg/kg equivalent, iv 5 mg/kg, read-out: Absolute Bioavailability): 24.4%
- Earliest detection in plasma after oral administration ([1]; oral mycelia powder equivalent to 50 mg/kg BW erinacine A): 1 min
- Tmax ([2]; brain, oral mycelia extract 2.381 g/kg BW, read-out: Time of peak concentration in brain): 8 h
- concentration at 4 h ([2]; heart, 4 h after oral mycelia extract 2.381 g/kg BW, read-out: Concentration in heart): 1110 ± 264 ng/g
- concentration at 4 h ([2]; kidney, 4 h after oral mycelia extract 2.381 g/kg BW, read-out: Concentration in kidney): 1280 ± 438 ng/g
- concentration at 4 h ([2]; large intestine, 4 h after oral mycelia extract 2.381 g/kg BW, read-out: Concentration in large intestine): 726 ± 336 ng/g
- concentration at 4 h ([2]; liver, 4 h after oral mycelia extract 2.381 g/kg BW, read-out: Concentration in liver): 2830 ± 641 ng/g
- concentration at 4 h ([2]; lung, 4 h after oral mycelia extract 2.381 g/kg BW, read-out: Concentration in lung): 1180 ± 339 ng/g
- concentration at 4 h ([2]; small intestine, 4 h after oral mycelia extract 2.381 g/kg BW, read-out: Concentration in small intestine): 25400 ± 20400 ng/g
- concentration at 4 h ([2]; stomach, 4 h after oral mycelia extract 2.381 g/kg BW (50 mg/kg erinacine A), read-out: Concentration in stomach): 56500 ± 27600 ng/g
- Tmax ([2]; oral mycelia extract 2.381 g/kg BW, read-out: Time of peak concentration in stomach, small intestine, large intestine, liver, heart, lung and kidney): 4 h
- Maximum concentration in brain ([2]; eight hours after oral mycelia extract 2.381 g/kg BW): 0.205 ± 0.079 µg/g
- Detectability in tissues at the end of 24 h ([2]; oral mycelia extract 2.381 g/kg BW): still detectable in GI tract, heart, and liver
- Blood-brain barrier penetration ([2]; rats, oral mycelia extract): can penetrate the blood-brain barrier of rats by the means of passive diffusion
- Feces Concentration [3, 16]: 1.533 ± 2.625 µg/g
- Urine Concentration [3, 16]: 0.248 µg/mL and 0.248 ± 0.210 µg/mL
- Feces Concentration ([3]; 4–8 h): 81.853 ± 99.919 µg/g
- Urine Concentration ([3]; 4–8 h): 0.118 ± 0.103 µg/mL
- Feces Concentration ([3]; 8–12 h): 271.237 µg/g and 271.237 ± 404.357 µg/g
- Urine Concentration ([3]; 8–12 h): 0.059 ± 0.043 µg/mL
- Feces Concentration ([3]; 12–24 h): 122.824 ± 198.611 µg/g
- Urine Concentration ([3]; 12–24 h): 0.055 ± 0.066 µg/mL
- Feces Concentration ([3]; 24–36 h): 4.475 ± 6.477 µg/g
- Urine Concentration ([3]; 24–36 h): 0.021 ± 0.037 µg/mL
- Feces Concentration ([3]; 36–48 h): 0.062 ± 0.099 µg/g
- Urine Concentration ([3]; 36–48 h): 0.016 ± 0.018 µg/mL
- Total amount of unchanged compound in feces relative to erinacine S [3, 17]: more than 20 times
- Total amount of unchanged compound in urine relative to erinacine S [3, 17]: > 2 times
- Cumulative fecal excretion, % of administered dose ([3]; unchanged erinacine A): 2.823%
- Cumulative urinary excretion, % of administered dose ([3]; unchanged erinacine A): 0.017%
- Total Amount excreted in feces [3, 18]: 428.379 ± 368.502 µg
- Total Amount excreted in urine [3, 18]: 2.604 ± 2.149 µg
- Percent free in plasma (rat plasma; 200 ng/mL, 37 °C, 4 h equilibrium dialysis, n = 3): 84.00 ± 2.01%
- Nonspecific binding with the plasma or tissues (rat plasma; 37 °C up to 4 h, preliminary study, data not shown): negligible
- fraction unbound at 4 h, 200 ng/mL ([4]; diluted (4×) brain homogenate, brain homogenate, highest, read-out: Binding with the brain (% bound) (converted)): 0.711
- fraction unbound at 4 h, 200 ng/mL ([4]; diluted (4×) stomach homogenate, stomach homogenate, lowest, read-out: Binding with the stomach (% bound) (converted)): 0.883
- Unbound brain-to-plasma concentration ratio [5]: close to unity
- Stability in plasma and tissues [6]: no degradation was observed
- Toxicity signs [7]: no toxicity signs were observed
- Nerve growth factor (NGF) stimulation [8]: stimulated nerve growth factor (NGF) in vitro
- NGF content in hippocampus and locus coeruleus [9]: increased NGF content
- Levels of acute inflammatory cytokines and ischemia-injury-induced neuronal cell death [10]: significantly reduced
- Proliferation of DLD-1 cells [11]: inhibited the proliferation
- Growth of DLD-1 xenografts (DLD-1 xenografts): inhibited
- Reduction of insoluble β amyloid and C-terminal fragment of amyloid precursor protein [12]: could reduce

Compound: CC(C)C1=C2[C@H]3CCC4=C(O)C(=O)[C@@]5(O)CO[C@H]6O[C@@H]([C@@H]4[C@]65O)[C@]3(C)CC[C@@]2(C)CC1 [erinacine S]
- Maximum plasma concentration [13, 19]: 0.73 µg/mL
- Time to reach maximum plasma concentration [13, 19]: 270.00 min
- Absolute bioavailability [13]: 15.13%
- Reduction of insoluble β amyloid and C-terminal fragment of amyloid precursor protein [12]: not
